Biological target: human TRPV3 receptors (Homo sapiens (Human), UniProt Q8NET8)
Assay: Calcium flux assay (FLIPR TETRA), inhibition of the 2-APB response
Format: cell-based
Conditions: recombinant HEK293 cells stably expressing TRPV3, Calcium-4 dye, 2-APB at its EC80
Experimental: (i) In Vitro Methods-Calcium Flux Assays:
Experiments were conducted using the FLIPR^TETRA®. On the day prior to the experiment, recombinant HEK293 cells that stably express human and mouse TRPV3 were removed from tissue culture flasks and plated in growth medium at 20,000 cells/well into black-walled clear-bottom 384-well Biocoat™ poly-D-lysine assay plates (BD Biosciences, Bedford, Mass.) using a Multidrop® dispenser (ThermoScientific, Waltham, Mass.). […] Cells were incubated for 90-120 minutes in the dark. Compounds were dissolved in DMSO to prepare a 10 mM stock solution. The intensity of the fluorescence was captured and digitally transferred to an interfaced PC. The peak increase in fluorescence over baseline (relative fluorescence units) was calculated and expressed as the percentage of the maximal 2-APB (2-aminoethoxyldiphenyl borate) response (in the absence of compound).

Chain of human TRPV3 receptors (Q8NET8 whole entry): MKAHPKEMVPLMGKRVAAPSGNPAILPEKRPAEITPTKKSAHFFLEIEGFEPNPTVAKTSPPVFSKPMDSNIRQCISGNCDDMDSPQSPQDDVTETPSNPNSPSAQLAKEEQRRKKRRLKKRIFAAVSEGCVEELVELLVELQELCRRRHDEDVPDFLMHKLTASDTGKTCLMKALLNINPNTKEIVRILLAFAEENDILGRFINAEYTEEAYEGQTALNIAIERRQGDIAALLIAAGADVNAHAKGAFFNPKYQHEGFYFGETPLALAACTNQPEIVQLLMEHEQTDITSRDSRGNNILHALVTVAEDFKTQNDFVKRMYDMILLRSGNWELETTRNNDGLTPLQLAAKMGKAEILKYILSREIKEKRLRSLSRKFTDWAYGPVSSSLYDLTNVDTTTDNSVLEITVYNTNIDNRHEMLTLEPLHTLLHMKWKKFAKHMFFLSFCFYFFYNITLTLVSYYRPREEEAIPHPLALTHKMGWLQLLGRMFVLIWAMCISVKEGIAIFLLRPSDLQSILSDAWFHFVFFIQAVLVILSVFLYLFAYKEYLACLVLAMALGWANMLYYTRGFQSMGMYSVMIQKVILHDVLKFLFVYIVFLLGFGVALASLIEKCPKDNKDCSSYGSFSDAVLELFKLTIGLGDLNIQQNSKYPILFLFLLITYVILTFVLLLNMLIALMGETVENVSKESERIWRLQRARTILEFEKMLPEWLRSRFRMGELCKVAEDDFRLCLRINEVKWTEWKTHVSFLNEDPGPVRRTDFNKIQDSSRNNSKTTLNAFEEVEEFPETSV

IC50 | Structure (SMILES)
1390 nM | CC(C)[C@H](CO)NCc1nc(-c2ccc(Cl)c(Cl)c2)ccc1F [Example 20, (2R)-2-({[6-(3,4-dichlorophenyl)-3-fluoropyridin-2-yl]methyl}amino)-3-methylbutan-1-ol]
580 nM | CC(C)[C@H](CO)NCc1nc(-c2ccoc2)ccc1F [Example 251, (2R)-2-({[3-fluoro-6-(furan-3-yl)pyridin-2-yl]methyl}amino)-3-methylbutan-1-ol]
500 nM | CC(C)Oc1ccc(-c2ccc(F)c(CN[C@@H](CO)C(C)C)n2)cn1 [Example 57, (2R)-2-({[5-fluoro-6′-(propan-2-yloxy)-2,3′-bipyridin-6-yl]methyl}amino)-3-methylbutan-1-ol]
> 20000 nM | CC(C)[C@@H](CO)NCc1nc(-c2ccc(C(F)(F)F)cc2)ccc1F [Example 30, (2S)-2-[({3-fluoro-6-[4-(trifluoromethyl)phenyl]pyridin-2-yl}methyl)amino]-3-methylbutan-1-ol]
510 nM | CC(C)(C)[C@H](CO)NCc1nc(-c2ccc(C(F)(F)F)nc2)ccc1F [Example 89, (2R)-2-({[5-fluoro-6′-(trifluoromethyl)-2,3′-bipyridin-6-yl]methyl}amino)-3,3-dimethylbutan-1-ol]
460 nM | CC(C)[C@H](CO)NCc1nc(-c2ccc(C(F)(F)F)cc2)ncc1F [Example 131, (2R)-2-[({5-fluoro-2-[4-(trifluoromethyl)phenyl]pyrimidin-4-yl}methyl)amino]-3-methylbutan-1-ol]
460 nM | CC(C)[C@H](CO)NCc1nc(-c2ccc(OCC(F)(F)F)cc2)ccc1F [Example 53, (2R)-2-[({3-fluoro-6-[4-(2,2,2-trifluoroethoxy)phenyl]pyridin-2-yl}methyl)amino]-3-methylbutan-1-ol]
700 nM | OC[C@H](NCc1nc(-c2ccc(C(F)(F)F)cc2)ccc1F)C1CCCCC1 [Example 84, (2R)-2-cyclohexyl-2-[({3-fluoro-6-[4-(trifluoromethyl)phenyl]pyridin-2-yl}methyl)amino]ethanol]
810 nM | CC(C)[C@H](CO)NCc1nc(-c2cccc(F)c2)ccc1F [Example 14, (2R)-2-({[3-fluoro-6-(3-fluorophenyl)pyridin-2-yl]methyl}amino)-3-methylbutan-1-ol]
280 nM | CC(C)[C@H](CO)NCc1nc(-c2cncc(C(F)(F)F)c2)ccc1F [Example 292, (2R)-2-({[5-fluoro-5′-(trifluoromethyl)-2,3′-bipyridin-6-yl]methyl}amino)-3-methylbutan-1-ol]
260 nM | CC(C)[C@H](CO)NCc1nc(-c2cc3ccccc3[nH]2)ccc1F [Example 274, (2R)-2-({[3-fluoro-6-(1H-indol-2-yl)pyridin-2-yl]methyl}amino)-3-methylbutan-1-ol]
1260 nM | CC(C)[C@@H](NCc1nc(-c2ccc(C(F)(F)F)nc2)ccc1F)C(C)(C)O [Example 106, (3R)-3-({[5-fluoro-6′-(trifluoromethyl)-2,3′-bipyridin-6-yl]methyl}amino)-2,4-dimethylpentan-2-ol]
350 nM | CC(C)[C@H](CO)NCc1nc(-c2cc3ccccc3n2C)ccc1F [Example 249, (2R)-2-({[3-fluoro-6-(1-methyl-1H-indol-2-yl)pyridin-2-yl]methyl}amino)-3-methylbutan-1-ol]
1330 nM | CC1CCN(C(=O)c2ccc(-c3ccc(F)c(CN[C@@H](CO)C(C)C)n3)cc2)CC1 [Example 275, {4-[5-fluoro-6-({[(2R)-1-hydroxy-3-methylbutan-2-yl]amino}methyl)pyridin-2-yl]phenyl}(4-methylpiperidin-1-yl)methanone]
700 nM | CC(C)Oc1ccc(F)c(-c2ccc(F)c(CN[C@@H](CO)C(C)C)n2)c1 [Example 23, (2R)-2-[({3-fluoro-6-[2-fluoro-5-(propan-2-yloxy)phenyl]pyridin-2-yl}methyl)amino]-3-methylbutan-1-ol]
> 20000 nM | C[C@@H](O)[C@H](NCc1nc(-c2ccc(C(F)(F)F)nc2)ccc1F)C(N)=O [Example 120, (2S,3R)-2-((5-fluoro-6′-(trifluoromethyl)-2,3′-bipyridin-6-yl)methylamino)-3-hydroxybutanamide]
320 nM | CC(C)[C@H](CO)NCc1nc(-c2ccc(F)cc2)ccc1F [Example 27, (2R)-2-({[3-fluoro-6-(4-fluorophenyl)pyridin-2-yl]methyl}amino)-3-methylbutan-1-ol]
1780 nM | CC(C)[C@H](CO)NCc1nc(-c2cccc(C(=O)N(C(C)C)C(C)C)c2)ccc1F [Example 56, 3-[5-fluoro-6-({[(2R)-1-hydroxy-3-methylbutan-2-yl]amino}methyl)pyridin-2-yl]-N,N-diisopropylbenzamide]
350 nM | CC(C)[C@H](CO)NCc1nc(N2CCc3c(cccc3C(F)(F)F)C2)ccc1F [Example 102, (2R)-2-[({3-fluoro-6-[5-(trifluoromethyl)-3,4-dihydroisoquinolin-2(1H)-yl]-pyridin-2-yl}methyl)amino]-3-methylbutan-1-ol]

Continued, compound first:

Structure (SMILES) | IC50
OCC1(NCc2ccnc(-c3ccc(C(F)(F)F)cc3)n2)CC1 [Example 135, {1-[({2-[4-(trifluoromethyl)phenyl]pyrimidin-4-yl}methyl)amino]cyclopropyl}methanol] | > 20000 nM
C[C@@H](O)[C@H](NCc1nc(-c2ccc(C(F)(F)F)nc2)ccc1F)C(=O)Nc1ccc2ccccc2c1 [Example 130, N^2-{[5-fluoro-6′-(trifluoromethyl)-2,3′-bipyridin-6-yl]methyl}-N-naphthalen-2-yl-L-threoninamide] | 2550 nM
CC(C)[C@H](CO)NCc1cccc(OCc2ccccc2)n1 [Example 12, (2R)-2-({[6-(benzyloxy)pyridin-2-yl]methyl}amino)-3-methylbutan-1-ol] | 910 nM
OC[C@H](NCc1ccnc(-c2ccc(C(F)(F)F)cc2)n1)C1CCCCC1 [Example 146, (2R)-2-cyclohexyl-2-[({2-[4-(trifluoromethyl)phenyl]pyrimidin-4-yl}methyl)amino]ethanol] | 8650 nM
CC(C)[C@H](CO)NCc1nc(N2CCc3ccccc3C2)ccc1F [Example 70, (2R)-2-({[6-(3,4-dihydroisoquinolin-2(1H)-yl)-3-fluoropyridin-2-yl]methyl}amino)-3-methylbutan-1-ol] | 180 nM
CC(C)[C@H](CO)NCc1nc(N2CCC(C(F)(F)F)CC2)ccc1F [Example 66, (2R)-2-[({3-fluoro-6-[4-(trifluoromethyl)piperidin-1-yl]pyridin-2-yl}methyl)amino]-3-methylbutan-1-ol] | 220 nM
CC(C)[C@H](CO)NCc1nc(N2CCc3cc(Cl)ccc3C2)ccc1F [Example 101, (2R)-2-({[6-(6-chloro-3,4-dihydroisoquinolin-2(1H)-yl)-3-fluoropyridin-2-yl]methyl}amino)-3-methylbutan-1-ol] | 500 nM
OCC1(NCc2cccc(-c3cc(C(F)(F)F)cc(C(F)(F)F)c3)n2)CCCC1 [Example 272, {1-[({6-[3,5-bis(trifluoromethyl)phenyl]pyridin-2-yl}methyl)amino]cyclopentyl}methano 1] | 220 nM
CC(C)[C@H](CO)NCc1cccc(C#Cc2ccc(S(F)(F)(F)(F)F)cc2)n1 [Example 263, (2R)-3-methyl-2-{[(6-{[4-(pentafluoro-λ^6-sulfanyl)phenyl]ethynyl}pyridin-2-yl)methyl]amino}butan-1-ol] | 230 nM
CC(C)[C@H](CO)NCc1nc(C#CCC2CCCCC2)ccc1F [Example 236, (2R)-2-({[6-(3-cyclohexylprop-1-yn-1-yl)-3-fluoropyridin-2-yl]methyl}amino)-3-methylbutan-1-ol] | 980 nM
CC(C)[C@H](CO)NCc1cccc(C#Cc2ccc(F)cc2F)n1 [Example 284, (2R)-2-[({6-[(2,4-difluorophenyl)ethynyl]pyridin-2-yl}methyl)amino]-3-methylbutan-1-ol] | 520 nM
CC(C)[C@H](CO)NCc1cccc(C#Cc2ccc(F)c(F)c2)n1 [Example 265, (2R)-2-[({6-[(3,4-difluorophenyl)ethynyl]pyridin-2-yl}methyl)amino]-3-methylbutan-1-ol] | 190 nM
CC(C)[C@H](CO)NCc1nc(C2CCN(C(=O)OC(C)(C)C)CC2)ccc1F [Example 205, tert-butyl 4-[5-fluoro-6-({[(2R)-1-hydroxy-3-methylbutan-2-yl]amino}methyl)pyridin-2-yl]piperidine-1-carboxylate] | 2460 nM
OC[C@@H]1[C@H]2CC[C@H](C2)[C@@H]1NCc1ccnc(-c2ccc(C(F)(F)F)cc2)n1 [Example 169, {(1S,2R,3S,4R)-3-[({2-[4-(trifluoromethyl)phenyl]pyrimidin-4-yl}methyl)amino]bicyclo[2.2.1]hept-2-yl]methanol] | > 20000 nM
CC(C)(O)[C@H](CO)NCc1ccnc(-c2ccc(S(=O)(=O)C(F)(F)F)cc2)n1 [Example 211, (2S)-3-methyl-2-{[(2-{4-[(trifluoromethyl)sulfonyl]phenyl}pyrimidin-4-yl)methyl]amino}butane-1,3-diol] | > 20000 nM
O[C@H]1CCCC[C@@H]1CNCc1ccnc(-c2ccc(C(F)(F)F)cc2)n1 [Example 165, (1S,2R)-2-{[({2-[4-(trifluoromethyl)phenyl]pyrimidin-4-yl}methyl)amino]methyl}cyclohexanol] | > 20000 nM
OC1(CNCc2ccnc(-c3ccc(C(F)(F)F)cc3)n2)CC1 [Example 176, 1-{[({2-[4-(trifluoromethyl)phenyl]pyrimidin-4-yl}methyl)amino]methyl}cyclopropanol] | > 20000 nM
CC(C)[C@H](CO)NCc1ccnc(-c2ccc(Cl)cc2)n1 [Example 34, (2R)-2-({[2-(4-chlorophenyl)pyrimidin-4-yl]methyl}amino)-3-methylbutan-1-ol] | 1390 nM

Source: patent US9012651B2, “TRPV3 modulators” (AbbVie Inc., priority 2011, dated 2015)
